From patent US20230002344A1, “NOVEL BENZOTHIOPHENE DERIVATIVES AND USE THEREOF FOR STIMULATING MITOCHONDRIAL TURNOVER” (NIBN, The National Institute For Biotechnology In The Negev …, priority 2019, published 2023)

Assays:
Assay type in all cases: cell-based
[1] = test system: INS1 cells; experiment: Cell growth rate under doxycycline; details: 1 mg/ml, 24, 48 and 72 hours
Method: (§1) INS1 (an insulin secreting cell line) cells (FIGS. 1A and 1B) and primary beta-cells (FIG. 1C) were treated with 1 mg/ml doxycycline for 72 hours. […] FIGS. 1B and 1C show basal Oxygen Consumption Rate (OCR) measured with Seahorse XF 24 respirometer. Average of 4 wells +/−SEM.

[2] = test system: primary beta-cells; experiment: Basal oxygen consumption rate in primary beta-cells; details: 1 mg/ml, 72 hours
Method: as §1

[3] = test system: INS1 cells expressing MitoTimer; experiment: MitoTimer red/green ratio high-content screen and dose-response; details: Rapamycin 100 nM, 18 h; for MitoTimer red/green ratio (known modulators): Urolithin 50 uM, Bafilomycin 200 nM, Chloroquine 20 uM
Method: INS1 cells were stably transduced with MitoTimer by lentiviral infection and were tested using known modulators of autophagy. The paradigm used was based on previous reports showing that the shift in emission from green to red occurs within 18 hours. Assuming that this shift is constant, changes in red FI occurring during this frame of time can result from an effect on MitoTimer clearance and not from an effect on synthesis. The paradigm employed consisted therefore of a treatment lasting 18 hours followed by imaging.
Stimulators of mitochondrial clearance were defined as those inducing a red-to-green FI below −3 and a red intensity below −5.1. Suppressors of mitochondrial clearance were defined as those inducing a red-to-green FI above 10.34 and a red intensity above 4.5. […] Compounds displaying high green FI (above 15) were also discarded to prevent the inclusion of autofluorescent molecules. Only molecules that filled the above criteria in both duplicates were further tested.
The screen was performed during 8 sessions in Weizmann institute. All compounds were tested at a concentration of 10 μM, in duplicates. The images were processed to reduce background (using Metamorph software) and then analyzed in GeneData software.
We subjected those compounds to a dose-response assay (concentrations: 10, 3.33, 1.11, 0.37 and 0.12 μM).
MitoTimer expressing INS1 cells generation, Cell Culture and treatments. MitoTimer-reporter was cloned into the pHAGE2 lenti-vector under the full-length EF1-alpha promoter to obtain constitutive expression. For the HCS, INS1 cells were infected with lentivirus carrying mitochondrial complex-I-targeted-MitoTimer plasmid. Highly expressing cells were selected by high speed fluorescence activated cell sorter (SY3200 cell sorter, Synergy, iCyt) and kept by the addition of puromycin (1 mg . L-1) in the cell media. Cells were thawed before each experiment, and MitoTimer expression checked through fluorescence.
High-Content Screening. […] HCS assay was developed at the Drug Discovery Unit, INCPM, Weizmann Institute of Science. […] Briefly, cells were treated with 10 uM of each compounds for 18 h and imaged in two wavelengths (FITC—excitation […], emission 520/35 nm and TRITC—excitation 543/22 nm, emission 593/40 nm) at ImageXpress Micro High-Content Imaging System/Molecular Devices. Rapamycin 100 nM was used as a control. In each cell plate, the neutral (DMSO) and positive control (Rapamycin) were repeated in 16 replicates while the treatments were performed in duplicates. Each plate was replicated and only hits found in the 2 independent plates were considered. Two fields of each well were analyzed, what normally allowed the analysis of 20-40 cells per condition. MitoTimer red/green ratio for every cell was done in MetaXpress. […] The compounds which affected MitoTimer red/green ratio in a dose response, ranging from […], were classified as a hit.
Individual cells were identified using the red channel, and red and green MitoTimer fluorescence were analyzed and ratio determined per cell.

[4] = test system: INS1 cells; experiment: Mitochondrial mass by Mitotracker green staining; details: 18 h; SPB08007 25 μM, MWP00839 11.5 μM, Urolithin A 25 μM
Method: The Z-score depicts the standard deviation from the neutral control (DMSO). In FIG. 3C: Mitochondrial mass in INS1 cells treated for 18 hours with either DMSO (control), Urolithin A (25 μM), SPB08007 (“SBP”) (25 μM) or MWP00839 (“MWP”) (11.5 μM) and then stained with Mitotracker green (200 nM). In FIG. 3D: SPB08007 and MWP00839 increase the number of mitochondria inside autolysosomes. INS1 cells expressing mCherry-GFP were exposed to SPB08007, MWP00839, and DMSO for 8 hours and then subjected to confocal microscopy. The area of red fluorescence in the taken images was determined. N=3+/−SEM pANOVA<0.05. FIG. 3E provides representative images. […] FIG. 3F provides the Western blot against LC3 in INS1 cells treated with the compounds in presence or absence of bafilomycin (+b) for the last 2 hours.
Mitotracker Green Fluorescence, Anion Radical Superoxide and Mitochondrial Membrane Potential. INS1 cells were seeded into wells of a 96-wells glass bottom cell culture plate (CELLSTAR) at a density of 2*10^4 cells/well. To assess mitochondrial clearance, a pulse-chase experiment was performed. […] Results are expressed as the percentage of MTG fluorescence relative to MTG fluorescence of the “time 0” control. […] Integrated fluorescence of each field was analyzed in Image J after background subtraction and threshold (IsoData) application. Twenty-four fields of each condition were analyzed in each experiment.

Structure (SMILES): C[C@H]1c2cccc(O)c2C(=O)C2=C(O)[C@]3(O)C(=O)C(C(N)=O)=C(O)[C@@H](N(C)C)[C@@H]3[C@@H](O)[C@@H]21 [Doxycycline]
- cell growth [1]: impairs
- basal oxygen consumption rate (OCR) [2]: impairs

Structure (SMILES): CO[C@H]1C[C@@H]2CC[C@@H](C)[C@@](O)(O2)C(=O)C(=O)N2CCCC[C@H]2C(=O)O[C@H]([C@H](C)C[C@@H]2CC[C@@H](O)[C@H](OC)C2)CC(=O)[C@H](C)/C=C(\C)[C@@H](O)[C@@H](OC)C(=O)[C@H](C)C[C@H](C)/C=C/C=C/C=C/1C [Rapamycin, reference compound]
- increase of MitoTimer red/green ratio [3]: 50%

Structure (SMILES): O=c1oc2cc(O)ccc2c2ccc(O)cc12 [Urolithin A, reference compound]
- mitochondrial mass (mitotracker green fluorescence) [4]: reduction
- MitoTimer red/green ratio (known modulators) [3]: significantly reduced

Structure (SMILES): CO/C1=C\C(C)=C\[C@@H](C)[C@@H](O)[C@@H](C)C/C(C)=C/C=C/[C@H](OC)[C@@H]([C@@H](C)[C@@H](O)[C@H](C)[C@@]2(O)C[C@@H](O)[C@H](C)[C@@H](C(C)C)O2)OC1=O [bafilomycin A1, reference compound]
- MitoTimer red/green ratio (known modulators) [3]: increased
